Laboratory results: patent US10300052B2, “Methods for increasing CFTR activity” (THE UAB RESEARCH FOUNDATION, priority 2012, dated 2019)

Assays:
human bronchial tissue = assay: μOCT imaging of airway epithelial function in human bronchial tissue
Experimental: FIGS. 6A-6C show the effects of CFTR activators on airway epithelial function in human bronchial tissue by μOCT. FIGS. 6A-6C show ASL depth (FIG. 6A), CBF (FIG. 6B) and MCT (FIG. 6C), respectively in response to ivacaftor treatment (10 μM).
To further investigate the role of CFTR activators in modulating airway epithelial cell function, CFTR activators were studied in combination with human bronchial tissue from a failed healthy donor. Human bronchial tissue was obtained and maintained as described herein. Control experiments were performed with the human bronchial tissue being exposed to DMSO control only (0.2%) and compared to ivacaftor treatment. FIGS. 6A-6C show ASL depth, CBF and MCT, respectively.
Samples of human trachea tissue were obtained from normal donor explant organs not selected for lung transplantation. Lung, mainstem bronchi, and trachea were resected en-bloc, transferred on wet ice, and large airways excised. Airway tissues were then immersed in ice cold DMEM following resection for transfer, then allowed to equilibrate to room temperature prior to mOCT imaging.
The μOCT system is a spectral-domain OCT implementation with several improvements to standard OCT that yield high resolution in both lateral and axial directions. The general layout and axial resolution characterization have been described (Liu et al., PLOSOne, 8(1), E54473-2013). A super-continuum source (Fianium SC450) provides the high-bandwidth, short coherence length light necessary for high axial resolution ([…]). […]
μOCT imaging was performed on various cells cultures with illumination incident on the apical side of the cells. […] ASL and PCL were measured directly from the thicknesses of the visible layers in the image with a correction applied for the index of refraction in the liquid (n=1.33). ASL and PCL were evaluated at 5 equally distributed regions of the image. CBF and MCT were determined from a time series of images. […] Up to 10 regions of ciliary activity per image sequence were assessed for CBF. […]

WT-CFTR = biological target: T1, WT-CFTR (Homo sapiens, UniProt P13569); assay: Short-circuit current (Isc) in Ussing chambers, CFBE41o- cells with stable WT-CFTR expression; format: cell-based; conditions: ivacaftor 10 μM after amiloride 100 μM and forskolin 100 nM, Cl- secretory gradient; CFBE41o- with stable WT-CFTR (FIG. 1A)
T1 construct: expressed in transfected cells
Experimental: CFBE41o-cells complemented by stable expression of WT-CFTR (by a lentivirus promoter) are shown in comparison to CFBE41o-cells without WT CFTR complementation (parental cells). *P<0.05, **P<0.005, n=5/condition.
The CFTR potentiator ivacaftor was chosen as an exemplary CFTR activator. The activity of ivacaftor was examined in WT-CFTR expressing cells.
Short-circuit current (Isc) was measured under voltage clamp conditions using MC8 voltage clamps and P2300 Ussing chambers (Physiologic Instruments, San Diego, Calif.) as previously described (2). Monolayers were initially bathed on both sides with identical Ringer's solutions containing (in mM) 115 NaCl, 25 NaHCO3, 2.4 KH2PO4, 1.24 K2HPO4, 1.2 CaCl2, 1.2 MgC2, 10 D-glucose (pH 7.4). Bath solutions were vigorously stirred and gassed with 95%02:5% CO2. Short-circuit current measurements were obtained using an epithelial voltage clamp (Physiologic Instruments). A one-second three-mV pulse was imposed every 10 seconds to monitor resistance calculated using Ohm's law. Where indicated, the mucosal bathing solution was changed to a low Cl-solution containing 1.2 NaCl and 115 Na+ gluconate, and all other components as above. Amiloride (100 μM) was added to block residual Na+ current, followed by the agonists forskolin, ivacaftor, and ATP as indicated (minimum five-min observation at each concentration). […]

T1 sequence (P13569 whole entry): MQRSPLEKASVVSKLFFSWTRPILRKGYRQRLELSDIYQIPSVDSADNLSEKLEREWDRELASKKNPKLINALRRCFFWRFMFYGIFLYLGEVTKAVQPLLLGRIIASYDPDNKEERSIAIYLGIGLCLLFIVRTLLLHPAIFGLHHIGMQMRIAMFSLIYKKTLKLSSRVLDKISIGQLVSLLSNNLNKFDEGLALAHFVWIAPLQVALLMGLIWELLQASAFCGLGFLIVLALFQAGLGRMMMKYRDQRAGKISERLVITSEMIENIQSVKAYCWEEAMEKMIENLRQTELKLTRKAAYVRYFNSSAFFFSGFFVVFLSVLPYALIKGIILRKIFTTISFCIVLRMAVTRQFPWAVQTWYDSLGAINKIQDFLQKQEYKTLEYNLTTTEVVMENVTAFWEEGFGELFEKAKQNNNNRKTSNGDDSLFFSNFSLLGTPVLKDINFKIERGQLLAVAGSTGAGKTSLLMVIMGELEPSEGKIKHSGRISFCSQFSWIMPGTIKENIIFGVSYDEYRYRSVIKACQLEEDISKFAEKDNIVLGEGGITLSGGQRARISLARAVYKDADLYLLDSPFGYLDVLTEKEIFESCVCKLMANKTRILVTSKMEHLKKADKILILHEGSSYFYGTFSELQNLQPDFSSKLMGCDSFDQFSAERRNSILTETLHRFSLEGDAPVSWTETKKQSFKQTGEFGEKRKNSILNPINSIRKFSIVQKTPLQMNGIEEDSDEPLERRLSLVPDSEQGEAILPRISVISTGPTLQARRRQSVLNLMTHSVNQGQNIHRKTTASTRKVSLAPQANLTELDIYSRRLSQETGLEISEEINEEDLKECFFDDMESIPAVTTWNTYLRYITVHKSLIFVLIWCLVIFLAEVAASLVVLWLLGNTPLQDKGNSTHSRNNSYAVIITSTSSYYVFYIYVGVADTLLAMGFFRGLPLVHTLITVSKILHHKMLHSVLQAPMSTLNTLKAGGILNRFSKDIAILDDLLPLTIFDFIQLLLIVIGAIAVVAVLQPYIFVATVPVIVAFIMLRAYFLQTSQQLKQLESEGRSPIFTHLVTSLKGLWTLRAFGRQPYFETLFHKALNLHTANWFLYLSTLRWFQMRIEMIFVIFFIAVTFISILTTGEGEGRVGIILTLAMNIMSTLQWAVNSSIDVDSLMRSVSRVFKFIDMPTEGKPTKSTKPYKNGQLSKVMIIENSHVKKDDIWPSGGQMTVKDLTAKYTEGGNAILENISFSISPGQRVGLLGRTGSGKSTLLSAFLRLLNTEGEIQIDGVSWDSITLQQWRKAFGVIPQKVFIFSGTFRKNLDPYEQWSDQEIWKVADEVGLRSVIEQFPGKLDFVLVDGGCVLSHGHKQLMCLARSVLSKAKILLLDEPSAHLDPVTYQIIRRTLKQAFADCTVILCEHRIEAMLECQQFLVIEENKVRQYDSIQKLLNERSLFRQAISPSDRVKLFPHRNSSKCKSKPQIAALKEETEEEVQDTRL

anion transport (Isc) (WT-CFTR): robust increases
Compound: CC(C)(C)c1cc(C(C)(C)C)c(NC(=O)c2c[nH]c3ccccc3c2=O)cc1O [ivacaftor]
CBF frequency (human bronchial tissue; ivacaftor 10 μM vs DMSO control (FIG. 6B)): significantly increased
ASL depth (human bronchial tissue; ivacaftor 10 μM, DMSO control approximately 10 microns (FIG. 6A)): approximately 30 microns
MCT (human bronchial tissue; ivacaftor 10 μM, control less than 0.01 mm/min (FIG. 6C)): ~0.04 mm/min
